From US12383545B1, “Treatment of migraine” (priority 2018, dated 2025)

System: ALT or AST
Test: Example 5: postbaseline hepatic laboratory parameter values of clinical interest
Format: in vivo, human
Settings: safety population; for Participants with Concurrent Elevations ALT or AST >=3 * ULN AND Bilirubin Total >=1.5 * ULN, n/N1 / Participants with Concurrent Elevations ALT or AST >=3 * ULN AND Bilirubin Total >=2 * ULN, n/N1 / Participants with Potential Hy's Law ALT or AST >=3 * ULN AND Bilirubin Total >=2 * ULN AND ALP <2 * ULN, n/N1: same day
Procedure: In a multicenter, randomized, double-blind, placebo-controlled, parallel-group study designed to evaluate the efficacy, safety, and tolerability of multiple doses and doses regimens of atogepant for the prevention of migraine. The patients were randomized (2:1:2:1:2:1) to 1 of 6 treatment groups: placebo, atogepant 10 mg QD, atogepant 30 mg QD, atogepant 30 mg BID, atogepant 60 mg QD, and atogepant 60 mg BID.
A total of 834 patients were randomized to double-blind treatment (ITT population), and 825 patients took at least 1 dose of double-blind IP (safety population). […] The primary efficacy variable was the change from baseline in mean monthly migraine/probable migraine headache days across the 12-week treatment period. The secondary efficacy variables were the change from baseline in mean monthly headache days across the 12-week treatment period, proportion of patients with at least a 50% reduction in mean monthly migraine/probable migraine headache days across the 12-week treatment period, and the change from baseline in mean monthly acute medication use days across the 12-week treatment period.

C[C@@H]1[C@H](c2c(F)ccc(F)c2F)C[C@H](NC(=O)c2cnc3c(c2)C[C@@]2(C3)C(=O)Nc3ncccc32)C(=O)N1CC(F)(F)F [atogepant]
Participants with postbaseline ALT or AST (U/L) >=3 * ULN, (%) (Atogepant 30 mg BID (N = 86)): (1.2) %
Participants with postbaseline ALT or AST (U/L) >=3 * ULN, n/N1 (Atogepant 30 mg BID (N = 86)): 1/84
Participants with postbaseline ALT or AST (U/L) >=5 * ULN, n/N1 (Atogepant 30 mg BID (N = 86)): 0
Participants with postbaseline ALT or AST (U/L) >=10 * ULN, n/N1 (Atogepant 30 mg BID (N = 86)): 0
Participants with postbaseline ALT or AST (U/L) >=20 * ULN, n/N1 (Atogepant 30 mg BID (N = 86)): 0
Participants with Concurrent Elevations ALT or AST >=3 * ULN AND Bilirubin Total >=1.5 * ULN, n/N1 (Atogepant 30 mg BID (N = 86)): 0
Participants with Concurrent Elevations ALT or AST >=3 * ULN AND Bilirubin Total >=2 * ULN, n/N1 (Atogepant 30 mg BID (N = 86)): 0
Participants with Potential Hy's Law ALT or AST >=3 * ULN AND Bilirubin Total >=2 * ULN AND ALP <2 * ULN, n/N1 (Atogepant 30 mg BID (N = 86)): 0
Participants with postbaseline ALT or AST (U/L) >=1 * ULN, (%) (Atogepant 30 mg QD (N = 183)): (17.8) %
Participants with postbaseline ALT or AST (U/L) >=1 * ULN, n/N1 (Atogepant 30 mg QD (N = 183)): 32/180
Participants with postbaseline ALT or AST (U/L) >=1.5 * ULN, (%) (Atogepant 30 mg QD (N = 183)): (7.2) %
Participants with postbaseline ALT or AST (U/L) >=1.5 * ULN, n/N1 (Atogepant 30 mg QD (N = 183)): 13/180
Participants with postbaseline ALT or AST (U/L) >=2 * ULN, (%) (Atogepant 30 mg QD (N = 183)): (3.3) %
Participants with postbaseline ALT or AST (U/L) >=2 * ULN, n/N1 (Atogepant 30 mg QD (N = 183)): 6/180
Participants with postbaseline ALT or AST (U/L) >=3 * ULN, (%) (Atogepant 30 mg QD (N = 183)): (0.6) %
Participants with postbaseline ALT or AST (U/L) >=3 * ULN, n/N1 (Atogepant 30 mg QD (N = 183)): 1/180
Participants with postbaseline ALT or AST (U/L) >=5 * ULN, n/N1 (Atogepant 30 mg QD (N = 183)): 0
Participants with postbaseline ALT or AST (U/L) >=10 * ULN, n/N1 (Atogepant 30 mg QD (N = 183)): 0
Participants with postbaseline ALT or AST (U/L) >=20 * ULN, n/N1 (Atogepant 30 mg QD (N = 183)): 0
Participants with Concurrent Elevations ALT or AST >=3 * ULN AND Bilirubin Total >=1.5 * ULN, n/N1 (Atogepant 30 mg QD (N = 183)): 0
Participants with Concurrent Elevations ALT or AST >=3 * ULN AND Bilirubin Total >=2 * ULN, n/N1 (Atogepant 30 mg QD (N = 183)): 0
Participants with Potential Hy's Law ALT or AST >=3 * ULN AND Bilirubin Total >=2 * ULN AND ALP <2 * ULN, n/N1 (Atogepant 30 mg QD (N = 183)): 0
Participants with postbaseline ALT or AST (U/L) >=1 * ULN, (%) (Atogepant 60 mg BID (N = 91)): (10.2) %
Participants with postbaseline ALT or AST (U/L) >=1 * ULN, n/N1 (Atogepant 60 mg BID (N = 91)): 9/88
Participants with postbaseline ALT or AST (U/L) >=1.5 * ULN, (%) (Atogepant 60 mg BID (N = 91)): (1.1) %
Participants with postbaseline ALT or AST (U/L) >=1.5 * ULN, n/N1 (Atogepant 60 mg BID (N = 91)): 1/88
Participants with postbaseline ALT or AST (U/L) >=2 * ULN, (%) (Atogepant 60 mg BID (N = 91)): (1.1) %
Participants with postbaseline ALT or AST (U/L) >=2 * ULN, n/N1 (Atogepant 60 mg BID (N = 91)): 1/88
Participants with postbaseline ALT or AST (U/L) >=3 * ULN, (%) (Atogepant 60 mg BID (N = 91)): (1.1) %
Participants with postbaseline ALT or AST (U/L) >=3 * ULN, n/N1 (Atogepant 60 mg BID (N = 91)): 1/88
Participants with postbaseline ALT or AST (U/L) >=5 * ULN, n/N1 (Atogepant 60 mg BID (N = 91)): 0
Participants with postbaseline ALT or AST (U/L) >=10 * ULN, n/N1 (Atogepant 60 mg BID (N = 91)): 0
Participants with postbaseline ALT or AST (U/L) >=20 * ULN, n/N1 (Atogepant 60 mg BID (N = 91)): 0
Participants with Concurrent Elevations ALT or AST >=3 * ULN AND Bilirubin Total >=1.5 * ULN, n/N1 (Atogepant 60 mg BID (N = 91)): 0
Participants with Concurrent Elevations ALT or AST >=3 * ULN AND Bilirubin Total >=2 * ULN, n/N1 (Atogepant 60 mg BID (N = 91)): 0
Participants with Potential Hy's Law ALT or AST >=3 * ULN AND Bilirubin Total >=2 * ULN AND ALP <2 * ULN, n/N1 (Atogepant 60 mg BID (N = 91)): 0
Participants with postbaseline ALT or AST (U/L) >=1 * ULN, (%) (Atogepant 60 mg QD (N = 186)): (13.8) %
Participants with postbaseline ALT or AST (U/L) >=1 * ULN, n/N1 (Atogepant 60 mg QD (N = 186)): 25/181
Participants with postbaseline ALT or AST (U/L) >=1.5 * ULN, (%) (Atogepant 60 mg QD (N = 186)): (4.4) %
Participants with postbaseline ALT or AST (U/L) >=1.5 * ULN, n/N1 (Atogepant 60 mg QD (N = 186)): 8/181
Participants with postbaseline ALT or AST (U/L) >=2 * ULN, (%) (Atogepant 60 mg QD (N = 186)): (2.8) %
Participants with postbaseline ALT or AST (U/L) >=2 * ULN, n/N1 (Atogepant 60 mg QD (N = 186)): 5/181
Participants with postbaseline ALT or AST (U/L) >=3 * ULN, (%) (Atogepant 60 mg QD (N = 186)): (1.7) %
Participants with postbaseline ALT or AST (U/L) >=3 * ULN, n/N1 (Atogepant 60 mg QD (N = 186)): 3/181
Participants with postbaseline ALT or AST (U/L) >=5 * ULN, (%) (Atogepant 60 mg QD (N = 186)): (0.6) %
Participants with postbaseline ALT or AST (U/L) >=5 * ULN, n/N1 (Atogepant 60 mg QD (N = 186)): 1/181
Participants with postbaseline ALT or AST (U/L) >=10 * ULN, n/N1 (Atogepant 60 mg QD (N = 186)): 0
Participants with postbaseline ALT or AST (U/L) >=20 * ULN, n/N1 (Atogepant 60 mg QD (N = 186)): 0
Participants with Concurrent Elevations ALT or AST >=3 * ULN AND Bilirubin Total >=1.5 * ULN, n/N1 (Atogepant 60 mg QD (N = 186)): 0
Participants with Concurrent Elevations ALT or AST >=3 * ULN AND Bilirubin Total >=2 * ULN, n/N1 (Atogepant 60 mg QD (N = 186)): 0
Participants with Potential Hy's Law ALT or AST >=3 * ULN AND Bilirubin Total >=2 * ULN AND ALP <2 * ULN, n/N1 (Atogepant 60 mg QD (N = 186)): 0
